Laboratory results as given in the NIST ThermoML archive (doi:10.1016/j.fluid.2014.07.004).

What was measured:
[1] = 298.15 K; 101.33 kPa; Liquid; Vibrating tube method
[2] = xn = mol fraction of the nth substance listed; details: 298.15 K, 101 kPa, Liquid, Vibrating tube method
[3] = refractive index (Na D-line) (dimensionless); xn = mol fraction of the nth substance listed; details: 298.15 K, 101 kPa, Liquid, Standard Abbe refractometry

COc1ccccc1 [anisole]
Details | mass density [kg/m3]
[1] | 989.42

COc1ccccc1 [anisole] + CO
Details | mass density, [2] [kg/m3] | refractive index, [3]
x2 = 0.0498 | 985.45 | 1.5105
x2 = 0.1003 | 981.36 | 1.5064
x2 = 0.2003 | 972.63 | 1.4974
x2 = 0.3001 | 962.6 | 1.4865
x2 = 0.4002 | 950.84 | 1.4749
x2 = 0.4997 | 936.67 | 1.4609
x2 = 0.5999 | 919.46 | 1.445
x2 = 0.7001 | 898.19 | 1.4238
x2 = 0.8 | 871.05 | 1.398
x2 = 0.8999 | 835.51 | 1.3658
x2 = 0.95 | 813.27 | 1.3488

COc1ccccc1 [anisole] + COC(=O)OC
Details | mass density, [2] [kg/m3] | refractive index, [3]
x1 = 0.0502 | 1058.1 | 1.3759
x1 = 0.0997 | 1053.35 | 1.3847
x1 = 0.1995 | 1044.2 | 1.402
x1 = 0.2996 | 1035.64 | 1.4178
x1 = 0.3999 | 1027.62 | 1.4334
x1 = 0.4998 | 1020.13 | 1.4485
x1 = 0.5999 | 1013.15 | 1.4629
x1 = 0.6999 | 1006.64 | 1.4766
x1 = 0.8 | 1000.51 | 1.4898
x1 = 0.9003 | 994.65 | 1.5027
x1 = 0.9503 | 991.82 | 1.5087

COC(=O)OC [dimethyl carbonate]
Details | mass density [kg/m3]
[1] | 1063.26

COC(=O)OC [dimethyl carbonate] + CO
Details | mass density, [2] [kg/m3] | refractive index, [3]
x2 = 0.0496 | 1056.77 | 1.3658
x2 = 0.1 | 1049.84 | 1.365
x2 = 0.1997 | 1034.4 | 1.3627
x2 = 0.3 | 1016.89 | 1.3607
x2 = 0.3999 | 997.15 | 1.3578
x2 = 0.5 | 974.61 | 1.3543
x2 = 0.5999 | 948.66 | 1.3506
x2 = 0.6999 | 918.36 | 1.3463
x2 = 0.7999 | 882.55 | 1.341
x2 = 0.9 | 839.54 | 1.3346
x2 = 0.9499 | 814.64 | 1.331

CO [methanol]
Details | mass density [kg/m3]
[1] | 786.59

Oc1ccccc1 [phenol]
Details | mass density [kg/m3]
[1] | 1058.51
